Measured values published in PubChem BioAssay AID268 (DTP/NCI, 2004).
Where “and” joins values, the source holds several entries; their conditions need not be identical. Equal entries are not always repeated.

Test system: CD2F1 mice, P1798 lymphosarcoma sc, tumor weight T/C
Assay: NCI In Vivo Anticancer Drug Screen. Data for tumor model P1798 Lymphosarcoma (subcutaneous) in CD2F1 (CDF1) mice
Details: endpoint: mean tumor weight, schedule: Q01DX010 (ip), vehicle: saline, higher = larger tumour
Experimental: The antitumor activity of compounds was measured in mice bearing transplantable tumors. Survival or tumor size were measured and the results are expressed as the measurement made in the treated group (T) divided by the measurement made in the vehicle treated control group (C). The tumor model used in this assay is P1798 Lymphosarcoma (subcutaneous) in CD2F1 (CDF1) mice

Compound	T/C (dose: 62.5 mg/kg/injection)	T/C (dose: 125.0 mg/kg/injection)	T/C (dose: 250.0 mg/kg/injection)	T/C (dose: 500.0 mg/kg/injection)	T/C (dose: 12.5 mg/kg/injection)	T/C (dose: 25.0 mg/kg/injection)	T/C (dose: 50.0 mg/kg/injection)	T/C (dose: 100.0 mg/kg/injection)
O=c1cn[nH]c(=O)[nH]1	111 % of control and 89 % of control	97 % of control	62 % of control and 80 % of control	80 % of control				
O=C(NCCCCC(NC(=O)c1ccccc1)C(=O)NCCCCCCCCCCNC(=O)C(CCCCNC(=O)c1ccccc1)NC(=O)c1ccccc1)c1ccccc1 (stereo not drawn)					85 % of control	93 % of control	86 % of control	90 % of control
